From PubChem BioAssay (NCI)
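GI50: concentration for 50% inhibition of growth. TGI: total growth inhibition.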

What was measured:
Test in all cases: NCI anticancer screen, dose series, 384-well format
HOP-92 NSCLC = system: HOP-92 NSCLC
UACC-62 melanoma = system: UACC-62 melanoma
NCI-H226 lung = system: NCI-H226 lung
SF-295 CNS = system: SF-295 CNS
SF-268 CNS = system: SF-268 CNS
U251 glioblastoma = system: U251 glioblastoma
NCI-H460 NSCLC = system: NCI-H460 NSCLC
SN12C renal = system: SN12C renal
SR leukemia = system: SR leukemia
OVCAR-8 ovarian = system: OVCAR-8 ovarian
CAKI-1 renal = system: CAKI-1 renal
K-562 leukemia = system: K-562 leukemia
HOP-62 NSCLC = system: HOP-62 NSCLC
ACHN renal = system: ACHN renal
HCC-2998 colon = system: HCC-2998 colon
SK-MEL-28 melanoma = system: SK-MEL-28 melanoma
HT29 colon = system: HT29 colon
SNB-19 CNS = system: SNB-19 CNS
SK-MEL-2 melanoma = system: SK-MEL-2 melanoma
OVCAR-3 ovarian = system: OVCAR-3 ovarian
NCI-H23 lung = system: NCI-H23 lung
SK-MEL-5 melanoma = system: SK-MEL-5 melanoma
SW-620 colon = system: SW-620 colon
A549 NSCLC = system: A549 NSCLC
OVCAR-4 ovarian = system: OVCAR-4 ovarian
SF-539 CNS = system: SF-539 CNS
BT-549 breast = system: BT-549 breast
PC-3 prostate = system: PC-3 prostate
M14 melanoma = system: M14 melanoma
TK-10 renal = system: TK-10 renal
HCT-15 colon = system: HCT-15 colon
MDA-MB-231 breast = system: MDA-MB-231 breast
OVCAR-5 ovarian = system: OVCAR-5 ovarian
A498 renal = system: A498 renal
DU-145 prostate = system: DU-145 prostate
KM12 colon = system: KM12 colon
T-47D breast = system: T-47D breast
MDA-MB-468 breast = system: MDA-MB-468 breast
IGROV1 ovarian = system: IGROV1 ovarian
HCT-116 colon = system: HCT-116 colon
NCI/ADR-RES ovarian = system: NCI/ADR-RES ovarian
MCF7 breast = system: MCF7 breast
NCI-H522 lung = system: NCI-H522 lung
786-0 renal = system: 786-0 renal
SK-OV-3 ovarian = system: SK-OV-3 ovarian
UO-31 renal = system: UO-31 renal
UACC-257 melanoma = system: UACC-257 melanoma
MOLT-4 leukemia = system: MOLT-4 leukemia
HL-60(TB) leukemia = system: HL-60(TB) leukemia
MDA-MB-435 melanoma = system: MDA-MB-435 melanoma
COLO 205 colon = system: COLO 205 colon
MALME-3M melanoma = system: MALME-3M melanoma
NCI-H322M lung = system: NCI-H322M lung
CCRF-CEM leukemia = system: CCRF-CEM leukemia
RXF 393 renal = system: RXF 393 renal
LOX IMVI melanoma = system: LOX IMVI melanoma

Cc1c2c(nn1C)CSCc1cc(n(C)n1)CSc1cc(c3ccccc3c1)OCCCc1c(C(=O)O)n(C)c3c-2c(Cl)ccc13
GI50 (HOP-92 NSCLC): 2.08 µM | TGI (HOP-92 NSCLC): 5.64 µM | GI50 (UACC-62 melanoma): 0.134 µM | TGI (UACC-62 melanoma): 0.349 µM | GI50 (NCI-H226 lung): 2.59 µM | TGI (NCI-H226 lung): 7.4 µM | GI50 (SF-295 CNS): 1.85 µM | TGI (SF-295 CNS): 4.23 µM | GI50 (SF-268 CNS): 3.04 µM | TGI (SF-268 CNS): 11.9 µM | GI50 (U251 glioblastoma): 2.35 µM | TGI (U251 glioblastoma): 4.92 µM | GI50 (NCI-H460 NSCLC): 1.96 µM | TGI (NCI-H460 NSCLC): 4.68 µM | GI50 (SN12C renal): 3.4 µM | TGI (SN12C renal): 13.4 µM | GI50 (SR leukemia): 0.0157 µM | TGI (SR leukemia): 0.0329 µM | GI50 (OVCAR-8 ovarian): 4.01 µM | TGI (OVCAR-8 ovarian): 15.3 µM | GI50 (CAKI-1 renal): 5.74 µM | TGI (CAKI-1 renal): 18.2 µM | GI50 (K-562 leukemia): 3.78 µM | TGI (K-562 leukemia): 13.1 µM | GI50 (HOP-62 NSCLC): 2.41 µM | TGI (HOP-62 NSCLC): 10.6 µM | GI50 (ACHN renal): 4.09 µM | TGI (ACHN renal): 15.9 µM | GI50 (HCC-2998 colon): 1.11 µM | TGI (HCC-2998 colon): 3.94 µM | GI50 (SK-MEL-28 melanoma): 2.51 µM | TGI (SK-MEL-28 melanoma): 7.44 µM | GI50 (HT29 colon): 3.49 µM | TGI (HT29 colon): 11.3 µM | GI50 (SNB-19 CNS): 3.5 µM | TGI (SNB-19 CNS): 12 µM | GI50 (SK-MEL-2 melanoma): 0.0454 µM | TGI (SK-MEL-2 melanoma): 0.189 µM | GI50 (OVCAR-3 ovarian): 1.76 µM | TGI (OVCAR-3 ovarian): 3.69 µM | GI50 (NCI-H23 lung): 0.185 µM | TGI (NCI-H23 lung): 0.861 µM | GI50 (SK-MEL-5 melanoma): 1.23 µM | TGI (SK-MEL-5 melanoma): 2.69 µM | GI50 (SW-620 colon): 3.96 µM | TGI (SW-620 colon): 13.6 µM | GI50 (A549 NSCLC): 3.94 µM | TGI (A549 NSCLC): 15.1 µM | GI50 (OVCAR-4 ovarian): 0.459 µM | TGI (OVCAR-4 ovarian): 3.54 µM | GI50 (SF-539 CNS): 1.74 µM | TGI (SF-539 CNS): 4.35 µM | GI50 (BT-549 breast): 1.62 µM | TGI (BT-549 breast): 4.58 µM | GI50 (PC-3 prostate): 3.04 µM | TGI (PC-3 prostate): 9.02 µM | GI50 (M14 melanoma): 2.8 µM | TGI (M14 melanoma): 8.79 µM | GI50 (TK-10 renal): 3.3 µM | TGI (TK-10 renal): 12.7 µM | GI50 (HCT-15 colon): 4.49 µM | TGI (HCT-15 colon): 15.5 µM | GI50 (MDA-MB-231 breast): 6.22 µM | TGI (MDA-MB-231 breast): 18.5 µM | GI50 (OVCAR-5 ovarian): 3.99 µM | TGI (OVCAR-5 ovarian): 14 µM | GI50 (A498 renal): 3.69 µM | TGI (A498 renal): 14.1 µM | GI50 (DU-145 prostate): 2.98 µM | TGI (DU-145 prostate): 8.97 µM | GI50 (KM12 colon): 2.13 µM | TGI (KM12 colon): 5.14 µM | GI50 (T-47D breast): 2.3 µM | TGI (T-47D breast): 8.32 µM | GI50 (MDA-MB-468 breast): 0.126 µM | TGI (MDA-MB-468 breast): 0.581 µM | GI50 (IGROV1 ovarian): 2.85 µM | TGI (IGROV1 ovarian): 10.9 µM | GI50 (HCT-116 colon): 2.41 µM | TGI (HCT-116 colon): 6.04 µM | GI50 (NCI/ADR-RES ovarian): 12 µM | TGI (NCI/ADR-RES ovarian): 24.4 µM | GI50 (MCF7 breast): 0.336 µM | TGI (MCF7 breast): 2.75 µM | GI50 (NCI-H522 lung): 0.0686 µM | TGI (NCI-H522 lung): 0.581 µM | GI50 ([…]-0 renal): 3.06 µM | TGI (786-0 renal): 11.5 µM | GI50 (SK-OV-3 ovarian): 6.18 µM | TGI (SK-OV-3 ovarian): 19.2 µM | GI50 (UO-31 renal): 3.82 µM | TGI (UO-31 renal): 14.6 µM | GI50 (UACC-257 melanoma): 2.59 µM | TGI (UACC-257 melanoma): 9.27 µM | GI50 (MOLT-4 leukemia): 0.0856 µM | TGI (MOLT-4 leukemia): 0.236 µM | GI50 (HL-60(TB) leukemia): 0.0122 µM | TGI (HL-60(TB) leukemia): 0.0248 µM | GI50 (MDA-MB-435 melanoma): 1.01 µM | TGI (MDA-MB-435 melanoma): 13.2 µM | GI50 (COLO 205 colon): 5.21 µM | TGI (COLO 205 colon): 17.3 µM | GI50 (MALME-3M melanoma): 1.76 µM | TGI (MALME-3M melanoma): 4.45 µM | GI50 (NCI-H322M lung): 8.43 µM | TGI (NCI-H322M lung): 20.8 µM | GI50 (CCRF-CEM leukemia): 0.631 µM | TGI (CCRF-CEM leukemia): 2.33 µM | GI50 (RXF 393 renal): 0.375 µM | TGI (RXF 393 renal): 2.13 µM | GI50 (LOX IMVI melanoma): 3.01 µM | TGI (LOX IMVI melanoma): 10.1 µM
